The term ED50 denotes the midpoint of the dose-response relation.

Where two headings read alike, the source gives them in different places.

The assay concerns Bezold-Jarisch reflux. The experiment in a line: Inhibition of Bezold-Jarisch reflux (2-methyl-5-hydroxytryptamine-induced bradycardia in anesthetized rats). Format: in vivo. The settings on record: test compound iv, 5-minutes interval, then 2-methyl-5-hydroxytryptamine 32 μg/kg iv, urethane-anesthetized male Sprague-Dawley rats, bradycardic response. On the procedure: Inhibition of Bezold-Jarisch reflux
Male Sprague-Dawley rats weighing 260-350 g were anesthetized intraperitoneally with 1.25 g/kg urethane.
Blood pressure and heart rate were monitored continuously from the left common carotid artery with a pressure transducer. A right femoral vein was cannulated for the intravenous injection (iv) of drugs. The trachea was also cannulated to ease the respiration.
Rats were given a rapid bolus injection of 2-methyl-5-hydroxytryptamine (32 μg/kg, iv) to establish the control bradycardic response. Once the heart rate returned to base line, the rats were given the test compound (iv), followed by 5-minutes interval and another bolus injection of 2-methyl-5-hydroxytryptamine (32 μg/kg, iv).

Take `Cc1[nH]cnc1C(C)N1CCc2c(C)c3ccccc3n2C1=O.Cl` (centres unmarked) [Compound 2, 3,4-Dihydro-5-methyl-2-[1-(5-methyl-1H-imidazol-4-yl)ethyl]pyrimido[1,6-a]indol-1(2H)-one hydrochloride]: the median effective dose (ED50) (Rattus norvegicus, 5 min, read-out: ED50) is 1.5 µg/kg.
Turning to “3,4-dihydro-5-methyl-2-[(5-methyl-1-trityl-1H-imidazol-4-yl)methyl]pyrimido[1,6-a]indol-1 (2H)-one [Example 1]”, the ED50 came out at 0.56 µg/kg.

These data come from US5256780A, “Pyrimidoindole derivatives and processes for preparation thereof” (Fujisawa Pharmaceutical Co., Ltd., priority 1989, dated 1993).
